# Results from patent US20230065953A1, “NOVEL HETEROARYL-TRIAZOLE COMPOUNDS AS PESTICIDES” (Bayer Aktiengesellschaft, priority 2019, published 2023).
# What was measured:
# Assay type in all cases: in vivo
# [1] = system: adult unfed cat fleas (Ctenocephalides felis); test: Ctenocephalides felis oral test; conditions: 48 h
# In short: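 About 20 adult unfed fleas fed through parafilm on cattle blood containing compound (DMSO stock diluted in blood), blood held at 37 °C and fleas at room temperature. Mortality (%) scored after 2 days.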
# [2] = system: adult engorged female ticks (Rhipicephalus microplus); test: Rhipicephalus (Boophilus) microplus injection test; conditions: 168 h, 4 μg/animal, egg deposition after 7 days, read-out: efficacy (infertile eggs)
# In short: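 Five adult engorged female ticks each injected into the abdomen with 1 μL of compound in DMSO, then kept in a climate chamber. Fertile egg deposition assessed after 7 days, with unclear eggs held until hatching around 42 days; efficacy 100% means all eggs infertile, 0% all fertile.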
# [3] = system: fall armyworm larvae (Spodoptera frugiperda); test: Spodoptera frugiperda spray test (maize leaf sections); conditions: 168 h
# In short: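 Maize leaf sections sprayed with compound in acetone/dimethylformamide, diluted in water with 1000 ppm alkylarylpolyglycol ether emulsifier. Dried sections infested with fall armyworm larvae. Mortality (%) scored after 7 days; 100% = all caterpillars killed.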
# [4] = system: adult brown dog ticks (Rhipicephalus sanguineus); test: Rhipicephalus sanguineus in-vitro contact test with adult brown dog ticks; conditions: 5 μg/cm^2 (=500 g/ha), after 48 hours, read-out: efficacy (ticks dead or moribund)
# Protocol: Rhipicephalus sanguineus—In-Vitro Contact Tests with Adult Brown Dog Ticks
# 9 mg compound is solved in 1 mL acetone and diluted with acetone to the desired concentration. 250 μL of the test solution is filled in 25 mL glass test tubes and homogeneously distributed on the inner walls by rotation and tilting on a shaking device (2 h at 30 rpm). With a compound concentration of 900 ppm, an inner surface of 44.7 cm^2 and a homogeneous distribution, a dose of 5 μg/cm^2 is achieved.
# After the solvent has evaporated, each test tube is filled with 5-10 adult brown dog ticks (Rhipicephalus sanguineus), closed with a perforated lid and incubated in a lying position at room temperature and relative humidity. After 48 hours efficacy is determined. The ticks are patted on the ground of the tubes and are incubated on a heating plate at 45-50° C. for at most 5 minutes. Immotile or uncoordinated moving ticks, which are not able to escape the heat by climbing upwards, are marked as dead or moribund.
# An efficacy of 100% means all ticks are dead or moribund; 0% means no ticks are dead or moribund.
# [5] = system: green peach aphid (Myzus persicae); test: Myzus persicae oral test; conditions: 120 h
# In short: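 Compound was dissolved in acetone, diluted with water and mixed into IPL41 insect medium with sugar under a parafilm seal. A mixed aphid population fed through the parafilm, and mortality (%) was scored after 5 days.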
# [6] = system: Rhipicephalus microplus larvae (strain Parkhurst, resistant against synthetic pyrethroids); test: Rhipicephalus (Boophilus) microplus in-vitro contact test, larval cattle tick; conditions: 5 μg/cm^2 (=500 g/ha), after 48 hours, read-out: efficacy (larvae dead or moribund)
# In short: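 Larvae (20–50 per tube) were exposed for 48 h at 27 °C and 85% relative humidity to dried acetone residues lining glass tubes, where 900 ppm corresponds to 5 μg/cm^2. Loss of negative geotaxis defined dead or moribund larvae, expressed as percent efficacy.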
# [7] = system: larvae of the banded cucumber beetle (Diabrotica balteata); test: Diabrotica balteata spray test; conditions: 168 h, 100 g/ha (=32 μg/well), wheat seeds, after 7 days, read-out: efficacy (seedling growth)
# In short: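 Wheat seeds germinated 1 day on agar were sprayed with compound in acetone/dimethylformamide with alkylarylpolyglycol ether emulsifier, diluted in emulsifier-containing water. Each unit then received 10-20 larvae, and % efficacy was scored after 7 days.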
# [8] = system: adult cat fleas (Ctenocephalides felis); test: Ctenocephalides felis in-vitro contact test, adult cat flea; conditions: 5 μg/cm^2 (=500 g/ha), after 48 hours
# In short: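 Acetone solutions of compound were coated onto inner walls of glass tubes (900 ppm giving 5 μg/cm^2) and dried; 5-10 adult C. felis were then held 48 h at room temperature. Efficacy = % fleas dead or moribund, judged by inability to escape a 45-50° C heating plate within 5 min.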
# [9] = system: adult flies Musca domestica strain WHO-N; test: Musca domestica test (MUSCDO surface treatment & contact assay); conditions: 24 hours after contact, read-out: efficacy (mortality)
# Protocol: Musca domestica Test (MUSCDO Surface Treatment & Contact Assay) • Solvent: Aceton+2000 ppm rapeseed oil methyl ester (RME)
# In order to produce a sufficient, active ingredient containing solution it is necessary to solve the test compound in the solvent-mix (acetone at 2 mg/ml/RME 2000 ppm). This solution is pipetted onto a glazed tile and after evaporation of the acetone, adult flies of the species Musca domestica strain WHO-N are placed onto the dried surface. The exposure time is 30 minutes.
# (§1) Mortality in percent (%) is determined 24 hours after contact of the insects to the treated surface. 100% mortality means that all tested insects are dead, whereas 0% means that no insect died.
# [10] = system: adult mosquitoes Aedes aegypti strain MONHEIM; test: Aedes aegypti test (AEDSAE surface treatment & contact assay); conditions: 24 hours after contact, read-out: efficacy (mortality)
# Protocol: Aedes aegypti test (AEDSAE surface treatment & contact assay) • Solvent: Aceton+2000 ppm rapeseed oil methyl ester (RME)
# In order to produce a sufficient, active ingredient containing solution it is necessary to solve the test compound in the solvent-mix (acetone at 2 mg/ml/RME 2000 ppm). This solution is pipetted onto a glazed tile and after evaporation of the acetone, adult mosquitoes of the species Aedes aegypti strain MONHEIM are placed onto the dried surface. The exposure time is 30 minutes.
# as §1
# [11] = system: green peach aphid (Myzus persicae); test: Myzus persicae spray test; conditions: foliar, 120 h, Chinese cabbage leaf disks, after 5 days
# In short: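 Chinese cabbage leaf discs infested with all instars of the aphid were sprayed with compound prepared in acetone/DMF and diluted in water containing 1000 ppm emulsifier. Mortality (%) was scored after 5 days, 100% meaning all aphids killed and 0% none.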
# [12] = system: larvae of the southern green stink bug (Nezara viridula); test: Nezara viridula spray test; conditions: in Hordeum vulgare, 96 h
# In short: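 Barley plants sprayed with compound in acetone/dimethylformamide, diluted in water with 1000 ppm alkylarylpolyglycol ether emulsifier, then infested with Nezara viridula larvae. Percent mortality read after 4 days (100% = all killed, 0% = none).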
# [13] = system: brown planthopper (Nilaparvata lugens); test: Nilaparvata lugens spray test; conditions: 96 h, 500 g/ha, rice plants, after 4 days
# Protocol: Nilaparvata lugens—Spray Test • Solvent: 78.0 parts by weight of acetone • 1.5 parts by weight of dimethylformamide • Emulsifier: alkylarylpolyglycol ether
# To produce a suitable preparation of active compound, 1 part by weight of active compound is mixed with the stated amount of solvents and is diluted with water, containing an emulsifier concentration of 1000 ppm, to the desired concentration. Further test concentrations are prepared by dilution with emulsifier containing water.
# Rice plants (Oryza sativa) are sprayed with a preparation of the active ingredient of the desired concentration and the plants are infested with the brown planthopper (Nilaparvata lugens).
# After 4 days mortality in % is determined. 100% means all planthoppers have been killed and 0% means none of the planthoppers have been killed.
# [14] = surface concentration 4 mg/m^2, 30 min exposure
# [15] = surface concentration 20 mg/m^2, 30 min exposure
Structure (SMILES),mortality at 100 ppm [1] [%],pest or weed control at 0.004 mg [2] [%],mortality at 100 g/ha [3] [%],"pest or weed control at 5 µg/cm2, 500 g/ha [4] [%]",mortality at 4 ppm [5] [%],pest or weed control at 5 µg/cm2 [6] [%],"pest or weed control at 32 µg/disc, 100 g/ha [7] [%]",efficacy (fleas dead or moribund) [8] [%],"mortality at 4 mg/m2 [9, 14] [%]","mortality at 20 mg/m2 [9, 15] [%]","mortality at 4 mg/m2 [10, 14] [%]","mortality at 20 mg/m2 [10, 15] [%]",mortality at 100 g/ha [11] [%],mortality at 100 g/ha [12] [%],mortality at 500 g/ha [12] [%],mortality at 500 g/ha [13] [%]
Cc1nc([C@H](C)NC(=O)c2cc(Br)cc(OC(F)(F)F)c2)n(-c2ncc(C#N)s2)n1 [I-17],100,100,100,100,100,100,100,80,,,,,,,,
Cc1nc([C@H](C)NC(=O)c2cc(Cl)cc(C(F)F)c2)n(-c2ncc(C#N)s2)n1 [I-18],100,100,100,100,100,100,100,,90 to 100,80 to 100,80 to 100,80 to 100,100,,,
Cc1nc([C@H](C)NC(=O)c2cc(Cl)cc(C(F)(F)F)c2)n(-c2ncc(C(=O)N(C)CC#N)s2)n1 [I-23],90,100,83,100,100,100,100,100,,,,,90,,,
"Cc1nc([C@H](C)NC(=O)c2cc(OC(F)(F)F)cc(C3CC3)c2)n(-c2ncc(C(=O)N(C)CC#N)s2)n1 [I-24, N-(cyanomethyl)-2-(5-{(1S)-1-[3-cyclopropyl-5-(trifluoromethoxy)benzamido]ethyl}-3-methyl-1H-1,2,4-triazol-1-yl)-N-methyl-1,3-thiazole-5-carboxamide]",100,100,100,80,100,100,100,100,,,,,100,,,
C[C@H](NC(=O)c1cc(C(F)(F)F)cc(S(C)(=O)=O)c1)c1ncnn1-c1ncc(C(=O)N(C)C)s1 [I-65],,,100,,,,100,100,,,,,100,100,100,90
CNC(=O)c1cnc(-n2ncnc2[C@H](C)NC(=O)c2cc(OC(F)(F)F)cc(S(C)(=O)=O)c2)s1 [I-113],,,,,,,100,,,,,,100,100,100,100
C[C@H](NC(=O)c1cc(OC(F)F)cc(OC(F)F)c1)c1ncnn1-c1ncc(C(=O)N(C)C)s1 [I-119],,,100,,,,100,,,,,,90,100,100,100
C[C@H](NC(=O)c1cc(OC(F)(F)F)cc(S(C)(=O)=O)c1)c1ncnn1-c1ncc(C(=O)N(C)C)s1 [I-120],,,100,,,,,,,,,,90,100,100,100
Cc1nc([C@H](C)NC(=O)c2cc(OC(F)(F)F)cc(C3CC3)c2)n(-c2ncc(C(=O)N(C)CC3CC3)s2)n1 [I-128],,,100,,,,100,,,,,,90,90,100,100
CCN(C)C(=O)c1cnc(-n2nc(C)nc2[C@H](C)NC(=O)c2cc(OC(F)(F)F)cc(C3CC3)c2)s1 [I-129],,,100,,,,100,,,,,,100,,,100
C[C@H](NC(=O)c1cc(S(=O)(=O)C(F)(F)F)cc(S(=O)(=O)C(F)(F)F)c1)c1ncnn1-c1ncc(C#N)s1 [I-138],,,100,,,,100,,,,,,,,,100
Cc1nc([C@H](C)NC(=O)c2cc(C(F)(F)F)cc(S(C)(=O)=O)c2)n(-c2ncc(C#N)s2)n1 [I-165],,,100,,,,100,,,,,,,,100,100
